Counter-ions that a name gives are not always drawn.

One test relates to QT interval. Briefly: class III antiarrhythmic action in guinea-pigs after intravenous administration (increase in QT interval, ECG). Type of test: in vivo, guinea-pigs (Pirbright white). The note with it: i.v.; for ED20: Cavia porcellus, iv, read-out: Increase in QT interval ED 20%; for Rel. action ED20 (D-sotalol)/ED20 (example): guinea-pigs, potency relative to D-sotalol = 1. As to the method:
The experimental animals are male and female Pirbright white guinea-pigs weighing from 300 to 500 g. They are anaesthetized with 1.5 g/kg urethane i.p. The substances are administered intravenously. The ECG conduction times and the heart rate are measured from a recording from extremity lead II. […] The criterion of a class III action is an increase in the QT interval compared with the values before administration of the substance. An increase in PQ and a large decrease in the heart rate serve as exclusion criteria.

The subject of test [1] is arrhythmias which are otherwise resistant to therapy, especially reentry arrhythmias. The note with it: Circulation 68 (1983); Am. Heart J. 109 (1985); J. Clin. Pharmacol. 27 (1987); cited from earlier work.
Setting [2] is: anaesthetized guinea-pigs (urethane 1.5 g/kg i.p.), ECG extremity lead II, 4 to 6 animals per dose, dose for 20% increase in QT interval, calculated from log dose-response.

In the case of `Cc1ccccc1/C=C/C(=O)c1cc(C)c(OCCN2CCCCC2)c(C)c1.O=C(O)/C=C/C(=O)O` [Example 2, 3',5'-Dimethyl-4'-(2-(1-piperidinyl)ethoxy)-2-methylchalcone fumarate], the ED20 with QT interval (setting [2]) is 0.76 mg/kg. Also, the “Rel. action ED20 (D-sotalol)/ED20 (example)” value (shortened to “Rel. action ED20”) in the test with QT interval is listed as 4.7.

On to `Cc1ccccc1CCC(=O)c1cc(C)c(OCCN2CCCC2)c(C)c1` [Example 25, 3,5-Dimethyl-4-(2-(1-pyrrolidinyl)ethoxy)-3'-(2-tolyl)-propiophenone fumarate], for which the ED20 with QT interval (setting [2]) is 0.79 mg/kg. Besides, the “Rel. action ED20” value in the test on QT interval was found to be 4.6. On the same counts, the results for `COc1ccccc1/C=C/C(=O)c1cc(C)c(OCCN2CCCC2)c(C)c1.O=C(O)/C=C/C(=O)O` [Example 13, 3',5'-Dimethyl-4'-(2-(1-pyrrolidinyl)ethoxy)-2-methoxychalcone fumarate] are 0.67 mg/kg and 5.4. On the same counts, the results for `CCN(CC)CCOc1c(C)cc(C(=O)/C=C/c2ccccc2C)cc1C.O=C(O)/C=C/C(=O)O` [Example 3, 4'-(2-Diethylaminoethoxy)-3',5'-dimethyl-2-methylchalcone fumarate] are 0.65 mg/kg and 5.5. On the same counts, the results for `CCc1ccccc1C=CC(=O)c1cc(C)c(OCCN2CCCC2)c(C)c1` [Example 12, 3',5'-Dimethyl-4,-(2-(1-pyrrolidinyl)ethoxy)-2-ethylchalcone fumarate] are 0.74 mg/kg and 4.9. “3',4'-Dimethyl-4'-(2-(1-pyrrolidinyl)ethoxy)-4-methoxychalcone fumarate [Example 24]”: in the test on QT interval (setting [2]), the “Increase in QT interval ED 20%” value is 0.95 mg/kg. Also, the “Rel. action ED20” value with QT interval turned out to be 3.8. For `COc1ccccc1/C=C/C(=O)c1cc(C)c(OCCN2CCCCC2)c(C)c1.Cl` [Example 17, 3',5'-Dimethyl-4'-(2-(1-piperidinyl)ethoxy)-2-methoxychalcone hydrochloride], the ED20 in the test on QT interval (setting [2]) is 1.69 mg/kg. In the test on QT interval, the “Rel. action ED20” value is reported as 2.1. Turning to `CCN(CC)CCOc1c(C)cc(C(=O)Cc2ccc(OC)cc2)cc1C` [Example 10, 4'-(2-Diethylaminoethoxy)-3',5'-dimethyl-4-methoxydeoxybenzoin], the ED20 with QT interval (setting [2]) was 1.31 mg/kg. The “Rel. action ED20” value in the test with QT interval is recorded as 2.7. On to `CCc1ccccc1C=CC(=O)c1cc(C)c(OCCN2CCOCC2)c(C)c1` [Example 18, 3',5'-Dimethyl-4'-(2-(1-morpholinyl)ethoxy)-2-ethylchalcone hydrochloride], for which the ED20 in the test on QT interval (setting [2]) is 1.5 mg/kg. Also, the “Rel. action ED20” value in the test on QT interval came out at 2.4. On the same counts, the results for `COc1ccccc1CCC(=O)c1cc(C)c(OCCN2CCCCC2)c(C)c1` [Example 27, 3,5-Dimethyl-3'-(2-methoxyphenyl)-4-(2-(piperidinyl)ethoxy)propiophenone fumarate] are 1.2 mg/kg and 3. Regarding `CCCCc1oc2ccccc2c1C(=O)c1cc(I)c(OCCN(CC)CC)c(I)c1` [amiodarone], in test [1], the “therapeutic advantage of class III antiarrhythmics reported in the literature” value is reported as “acting against arrhythmias which are otherwise resistant to therapy”. `CCc1ccccc1CCC(=O)c1cc(C)c(OCCN2CCCCC2)c(C)c1` [Example 32, 3,5-Dimethyl-3'-(2-ethylphenyl)-4-(2-(1-piperidinyl)ethoxy)propiophenone f umarate]: in the test with QT interval (setting [2]), the ED20 is 1.62 mg/kg. The “Rel. action ED20” value with QT interval is on record as 2.2. On the same counts, the results for `Cc1ccccc1/C=C/C(=O)c1cc(C)c(OCCN2CCCC2)c(C)c1` [Example 1, 3',5'-Dimethyl-4,-(2-(1-pyrrolidinyl)ethoxy)-2-methylchalcone tosylate] are 0.74 mg/kg and 4.9.

For the molecule `COc1ccc(C=CC(=O)c2cc(C)c(OCCN3CCCC3)c(C)c2)c(C)c1` [Example 15, 3',5'-Dimethyl-4'-(2-(1-pyrrolidinyl)ethoxy)-4-methoxy-2-methylchalconeoxalate], the ED20 in the test on QT interval (setting [2]) was 1.5 mg/kg. Moreover, the “Rel. action ED20” value in the test on QT interval turned out to be 2.4.

In the case of `Cc1ccccc1/C=C/C(=O)c1cc(C)c(OCCCN2CCCC2)c(C)c1.O=C(O)/C=C/C(=O)O` [Example 4, 3',5'-Dimethyl-4'-(3-(1-pyrrolidinyl)propoxy)-2-methylchalcon fumarate], in the test on QT interval (setting [2]), the ED20 was 0.89 mg/kg. Moreover, the “Rel. action ED20” value in the test with QT interval was 4.0. On the same counts, the results for `COc1ccc(/C=C/C(=O)c2cc(C)c(OCCN3CCCCC3)c(C)c2)c(C)c1.O=C(O)/C=C/C(=O)O` [Example 20, 3',5'-Dimethyl-4'-(2-(1-piperidinyl)ethoxy)-4-methoxy-2-methylchalcone fumarate] are 0.73 mg/kg and 4.9.

Take `CC(C)NCC(O)c1ccc(NS(C)(=O)=O)cc1` (single isomer, unassigned) [D-sotalol, reference compound]: in the test on QT interval (setting [2]), the ED20 is 3.6 mg/kg. Also, the “therapeutic advantage of class III antiarrhythmics reported in the literature” value in test [1] is reported as “acting against arrhythmias which are otherwise resistant to therapy”.

The record behind these values is patent US5118682A, “p-Hydroxy phenone derivatives and the use thereof” (BASF Aktiengesellschaft, priority 1988, dated 1992).
